Measurements taken from ChEMBL document CHEMBL6092124, “Design, synthesis and biological evaluation of novel cyano-cinnamate derivatives as mitochondrial pyruvate carrier inhibitors” (Bioorg Med Chem Lett, 2024).
Calls of active or inactive are those of the source. The rule behind the calls is not given here.

Assays:
[1] = test system: MCF-10A; test: Inhibition of MPC in human MCF-10A cells assessed as lactate concentration at 10 uM measured for 36 hrs; assay type: cell-based
[2] = test system: MCF-10A; test: Inhibition of MPC in human MCF-10A cells assessed as cellular lactate production measured per 10^6 cells at 10 uM measured for 36 hrs; assay type: cell-based
[3] = test system: MCF-10A; test: Inhibition of MPC in human MCF-10A cells assessed as cellular lactate production measured per 10^6 cells measured for 36 hrs; assay type: cell-based; conditions: dose 10.0 µM
[4] = species on record: Mus musculus; test: Induction of hair growth in C57BL/6J mouse assessed as appearance of hair growth patches measured on day 17; assay type: functional, organism-based; conditions: time 17.0 day
[5] = species on record: Mus musculus; test: Induction of hair growth in C57BL/6J mouse assessed as increase in pigmentation measured after 10 days; assay type: functional, organism-based; conditions: time 10.0 day

Compound	Activity [1]	Activity [2]	Activity [3]	Activity [4]	Activity [5]
CCOC(=O)/C(C#N)=C/c1cn(-c2cncnc2)c2ccccc12	0.025 µmol/mL	0.006 µmol			
N#C/C(=C\c1cn(-c2ccccc2)c2ccccc12)C(=O)O	0.778 µmol/mL	0.185 µmol	Dose-dependent-effect	Active	
N#C/C(=C\c1cn(-c2ccccn2)c2ccccc12)C(=O)O	0.489 µmol/mL	0.116 µmol			
N#C/C(=C\c1cn(-c2cccnc2)c2ccccc12)C(=O)O	0.251 µmol/mL	0.06 µmol			
CCOC(=O)/C(C#N)=C/c1cn(Cc2ccncc2)c2ccccc12	-0.02 µmol/mL	-0.005 µmol			
CCOC(=O)/C(C#N)=C/c1cn(Cc2cccnc2)c2ccccc12	0.874 µmol/mL	0.208 µmol			
N#C/C(=C\c1cn(-c2ccncc2)c2ccccc12)C(=O)O	0.059 µmol/mL	0.014 µmol			
N#C/C(=C\c1cn(Cc2ccc3ccccc3c2)c2ccccc12)C(=O)O	1.23 µmol/mL	0.292 µmol			
N#C/C(=C\c1cn(-c2cncnc2)c2ccccc12)C(=O)O	0.546 µmol/mL	0.13 µmol			
CCOC(=O)/C(C#N)=C/c1cn(Cc2ccccn2)c2ccccc12	-0.128 µmol/mL	-0.03 µmol			
CCOC(=O)/C(C#N)=C/c1cn(-c2ccncc2)c2ccccc12	0.025 µmol/mL	0.006 µmol			
N#C/C(=C\c1cn(Cc2cccnc2)c2ccccc12)C(=O)O	0.393 µmol/mL	0.093 µmol			
CCOC(=O)/C(C#N)=C/c1cn(-c2ncccn2)c2ccccc12	0.342 µmol/mL	0.081 µmol			
CCOC(=O)/C(C#N)=C/c1cn(-c2ccc3ccccc3c2)c2ccccc12	0.438 µmol/mL	0.104 µmol			
N#C/C(=C\c1cn(-c2ncccn2)c2ccccc12)C(=O)O	0.421 µmol/mL	0.1 µmol			
CCOC(=O)/C(C#N)=C/c1cn(-c2cccnc2)c2ccccc12	0.138 µmol/mL	0.033 µmol			
CCOC(=O)/C(C#N)=C/c1cn(Cc2ccc3ccccc3c2)c2ccccc12	0.268 µmol/mL	0.064 µmol			
N#C/C(=C\c1cn(Cc2ccccn2)c2ccccc12)C(=O)O	1.35 µmol/mL	0.322 µmol		Active	Active; Drug Entered To Anagen Phase
N#C/C(=C\c1cn(-c2ccc3ccccc3c2)c2ccccc12)C(=O)O	0.517 µmol/mL	0.123 µmol			
Cn1cnc(-n2cc(/C=C(\C#N)C(=O)O)c3ccccc32)c1	-0.003 µmol/mL	-0.001 µmol			
CCOC(=O)/C(C#N)=C/c1cn(-c2ccccn2)c2ccccc12	0.625 µmol/mL	0.148 µmol			
N#C/C(=C\c1cn(Cc2ccncc2)c2ccccc12)C(=O)O	-0.337 µmol/mL	-0.08 µmol			
CCOC(=O)/C(C#N)=C/c1cn(-c2cn(C)cn2)c2ccccc12	0.64 µmol/mL	0.152 µmol			
